Results as given in patent EP1980559A1, “Cardiovascular agents” (CTG Pharma S.r.l., priority 2007, dated 2008).

Tests used:
NAD(P)H oxidases [1] = assay: NAD(P)H oxidases inhibition: superoxide (O2^-) release by ferricytochrome c reduction in PAVSMCs; assay type: cell-based, porcine; settings: PAVSMCs stimulated with LPS, TNFα and IL1α; 100 nM; 16 hours incubation
Procedure: (§1) The method described by Muzaffar S, Shukla N, Angelini GD, Jeremy JY; "Prednisolone augments superoxide formation in porcine pulmonary artery endothelial cells through differential effects on the expression of nitric oxide synthase and NADPH oxidase" in Br. J. Pharmacol. 2005 Ju1;145(5):688-97 was used.
(§2) Briefly lungs were obtained from male pigs of body weight ranging from 20 - 35 kg. Pulmonary arteries (PA) of between 3-4 mm diameter were dissected from the lungs within 30 minutes and placed in Dulbecco's Minimum Essential Medium (DMEM). The arteries were then cut into 2 mm segments for preparation of cell cultures. PAECs were grown in Endothelial Cell Growth Medium at 37°C in a 95% air-5% CO2 incubator. The measurement of superoxide (O2^-) release by cells was performed by detection of ferricytochrome c reduction.
(§3) The reduction of cytochrome c that was inhibitable with SOD reflected actual O2^- release. PAVSMCs and PAECS were seeded and incubated with the TXA2 analogue, U46619, isoprostane F2α,LPS (endotoxin) human recombinant IL-1α and human recombinant TNF-α, alone or with drugs for 16 hours. RESULTS
(§4) LPS, IL-1α, TNF-α and U46619 all promoted the formation of O2^- in both porcine pulmonary artery VSMCs (PAVSMCs) and endothelial cells (PAECS) compared to untreated controls following a 16 hour incubation. […]

NAD(P)H oxidases [2] = assay: NAD(P)H oxidases inhibition: superoxide (O2^-) release by ferricytochrome c reduction in PAECs; assay type: cell-based, porcine; settings: PAECs stimulated with LPS, TNFα and IL1α; 100 nM; 16 hours incubation
Procedure: as §1, §2, §3, §4

[3] = test system: spontaneously hypertensive rats (SHRs); assay: Antihypertensive activity in vivo: systolic blood pressure by telemetry in conscious SHRs; settings: daily oral dose for 3 days, losartan 10 mg/kg po or equimolar dose; for Systolic blood pressure (SBP) 1 hr: 1 hr after dosing; for Systolic blood pressure (SBP) 12 hr: 12 hr after dosing; for Systolic blood pressure (SBP) 24 hr: 24 hr after dosing
Procedure: The ability of compound of example 1 to decrease blood pressure was evaluated in conscious spontaneously hypertensive rats (SHRs).
Three groups of SHRs (250-300g) received daily oral dose of losartan (10 mg/kg po) or compound of example 1 (equimolar dose) or vehicle (SHR control group) for 3 days. Systolic blood pressure (SBP) and heart rate were monitored by telemetry at different time points after dosing. The SBP was measured at baseline and after 1 hour, 12 hours and 24 hours.

[4] = test system: isolated rabbit thoracic aorta preparations; assay: Study on vascular tone: vasorelaxation in isolated rabbit thoracic aorta preparations; settings: aorta rings contracted submaximally with noradrenaline (1 µM); concentration-response curve
Procedure: The ability of ARB derivatives to induce vasorelaxation in comparison to native ARB, was tested in vitro in isolated rabbit thoracic aorta preparations (Wanstall J. C. et al., Br. J. Pharmacol., 134:463-472, 2001). Male New Zealand rabbits were anaesthetized with thiopental-Na (50 mg/kg, iv), sacrificed by exsanguinations and then the thorax was opened and the aorta dissected.
Single ring preparations (4 mm in length) of thoracic aorta were set up in physiological salt solution at 37 °C in small organ chambers (5 ml). Each ring was mounted under 2g passive tension in 5 ml organ bath. Preparations were allowed to equilibrate for 1 h, then contracted submaximally with noradrenaline (NA, 1 µM) and, when the contraction was stable, acetylcholine (ACh, 10 µM) was added.
A relaxant response to ACh indicated the presence of a functional endothelium.

| Structure (SMILES) | formation of O2^- (NAD(P)H oxidases [1]) | formation of O2^- (NAD(P)H oxidases [2]) | Systolic blood pressure (SBP) 1 hr [3] | Systolic blood pressure (SBP) 12 hr [3] | Systolic blood pressure (SBP) 24 hr [3] | Systolic blood pressure (SBP) Baseline [3] | relaxation [4] |
| --- | --- | --- | --- | --- | --- | --- | --- |
| CCCCc1nc(Cl)c(CO)n1Cc1ccc(-c2ccccc2-c2nn[nH]n2)cc1 [Losartan, losartan] | no significant effect | no significant effect | 135 mm Hg | 134 mm Hg | 135 mm Hg | 143 mm Hg | did not produce relaxation at any of the concentration tested |
| CCCCc1nc(Cl)c(COC(=O)c2ccc(-c3cssc3=S)cc2)n1Cc1ccc(-c2ccccc2-c2nn[nH]n2)cc1 [Cpd EX.1, 4-(3-thioxo-3H-1,2-dithiol-4-yl)benzoic acid 2-butyl-4-chloro-1-[p-(o-1H-tetrazol-5-ylphenyl)-benzyl]imidazole-5-methyl ester] |  |  | 120 mm Hg | 121 mm Hg | 122 mm Hg | 145 mm Hg |  |
